Each compound was assayed against T1, Tyrosine-protein phosphatase non-receptor type 1 (Homo sapiens, UniProt P18031) (assay: In Vitro Assay). Settings: pH 7.
T1 sequence (P18031 whole entry): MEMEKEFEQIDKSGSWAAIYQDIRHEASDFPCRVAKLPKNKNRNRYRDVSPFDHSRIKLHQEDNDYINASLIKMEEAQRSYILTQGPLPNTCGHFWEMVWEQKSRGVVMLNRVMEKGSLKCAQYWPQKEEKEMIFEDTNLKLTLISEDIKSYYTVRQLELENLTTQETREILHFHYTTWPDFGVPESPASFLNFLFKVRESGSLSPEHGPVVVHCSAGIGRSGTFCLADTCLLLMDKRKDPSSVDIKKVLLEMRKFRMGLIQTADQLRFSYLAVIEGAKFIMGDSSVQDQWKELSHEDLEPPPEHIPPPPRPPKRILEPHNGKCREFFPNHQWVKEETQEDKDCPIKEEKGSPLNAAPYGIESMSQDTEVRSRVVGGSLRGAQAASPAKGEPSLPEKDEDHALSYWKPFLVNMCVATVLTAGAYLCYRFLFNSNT
Experimental: The effect of the test compounds on PTP1B was studied by preincubating the test compound with enzyme in the reaction system for 10 min and determining the residual enzyme activity according to the Goldstein method.

SMILES	IC50 [µM]	Ki [µM]
COc1cc(C=O)ccc1C1=NOC(c2ccccc2)C1 (stereo not given) [PTP1B Inhibitor, 10]	69	48
COc1ccc(C2CC(c3ccc(C=O)cc3OC)=NO2)cc1 (stereo not given) [PTP1B Inhibitor, 11]	67	48
COc1cc(C=O)ccc1C1=NOC(c2ccccn2)C1 (stereo not given) [PTP1B Inhibitor, 12]	485	170
COc1cc(C=O)ccc1C1=NOC(c2ccncc2)C1 (stereo not given) [PTP1B Inhibitor, 13]	275	150
COc1cc(C=O)ccc1C1=NOC(n2ccnc2)C1 (stereo not given) [PTP1B Inhibitor, 14]	88	63
CC(=O)Oc1ccc(C2=NOC(c3ccccc3)C2)c(OC(C)=O)c1 (stereo not given) [PTP1B Inhibitor, 19]	62.7	25

More lines, in order of falling IC50, values ahead:

IC50 [µM]	Ki [µM]	SMILES
165	135	COC(=O)C1C(c2ccc(C=O)cc2OC)=NOC1c1ccccc1 (stereo not given) [PTP1B Inhibitor, 15]
91	56	COc1ccc(C2CC(c3ccc4c(c3OC)C=CC(C)(C)O4)=NO2)cc1 (stereo not given) [PTP1B Inhibitor, 6]
87	34	COc1c(C2=NOC(c3ccccn3)C2)ccc2c1C=CC(C)(C)O2 (stereo not given) [PTP1B Inhibitor, 7]
70	30	COc1c(C2=NOC(c3ccccc3)C2)ccc2c1C=CC(C)(C)O2 (stereo not given) [PTP1B Inhibitor, 5]

From BindingDB's records for doi:10.1007/s00044-007-9043-6 (Central Drug Research Institute, 2008)
